Earlier results as cited in PMC8725427 (Cellulose (London, England), 2022).

Columns and labels:
[1] = from nanoliposomal carrier, simulated lung fluid; ref Vartak et al. ([2021])
[2] = in vitro, over a period concerned; ref Vedula et al. ([2016])
[3] = carboxymethyl cellulose 2% (w/v) in PBS medium; ref Gunathilake et al. [2020b]
[4] = test system: healthy organs; conditions: doses as high as 8 g/day; ref Almosa et al. [2020]
[5] = molecular target: HIV-1 integrase; conditions: read-out: IC50 to inhibit the HIV-1 integrase; ref Mazumder et al. [1995]
[6] = test system: influenza A virus (IAV); conditions: ref Chen et al. [2010]
[7] = test system: chikungunya virus; conditions: read-out: IC50 for chikungunya virus; ref von Rhein et al. [2016]
[8] = test system: vesicular stomatitis virus; conditions: read-out: IC50 for vesicular stomatitis virus
[9] = test system: influenza A virus; conditions: read-out: IC50 for influenza A virus; ref Richart et al. [2018]
[10] = test system: transmissible gastroenteritis virus; conditions: read-out: IC50 for transmissible gastroenteritis virus; ref Li et al. [2020]
[11] = test system: SARS-CoV-1; conditions: read-out: EC50 for SARS-CoV-1 replication inhibition

CCC(CC)COC(=O)[C@H](C)N[P@](=O)(OC[C@H]1O[C@@](C#N)(c2ccc3c(N)ncnn23)[C@H](O)[C@@H]1O)Oc1ccccc1 [Remdesivir, remdesivir]
Time to complete drug release [1]: ≤ 50 h

Nc1nc2c(ncn2COCCO)c(=O)[nH]1 [ACV, acyclovir]
Percentage of drug release [2]: ~5%

COc1cc(/C=C/C(=O)CC(=O)/C=C/c2ccc(O)c(OC)c2)ccc1O [curcumin]
Curcumin solubility in carboxymethyl cellulose medium [3]: 147 ± 5.66 µg/mL | Lethal effect on healthy organs [4]: no lethal effect | IC50 [5]: 40 µM | Effective dose against influenza A virus (IAV) [6]: ~ 10 µM | IC50 [7]: 10.8 µM | IC50 [8]: 4.5 µM | IC50 [9]: ~0.2 µM | IC50 [10]: 8.6 µM | EC50 [11]: > 10 µM
